Values joined by “and” are separate entries in the source; they are usually repeats but may differ in a detail not shown here. Equal entries are not always repeated.
Experiments:
in vivo [1] = conditions: rat, po, 150 mg/kg
Experimental: (§1) Three studies were performed to investigate the pharmacokinetics of oral administration of a scyllo-cyclohexanehexyl (Table 1):
Plasma pharmacokinetics (PK) of a scyllo-cyclohexanehexyl in rats was assessed after single oral doses of 15, 50 and 150 mg/kg. After single oral doses in rats, maximum plasma concentration (Cmax) and exposure (AUC0-t) values increased proportionally with dose level of the scyllo-cyclohexanehexyl. Other parameters were unchanged with dose level. The scyllo-cyclohexanehexyl was absorbed rapidly, with mean tmax observed between 1.0 and 2.2 hours post-dose. […] Estimates of mean residence time (MRT) were consistent. Volumes of distribution (Vdss) were large, indicating wide distribution of scyllo-cyclohexanehexyl in rats.

in vivo [2] = conditions: dog, po
Experimental: as §1
Two studies have investigated the single dose PK of oral administration of a scyllo-cyclohexanehexyl in dogs. The 14 day study investigated 18 animals. On Day 1 of this study Cmax and AUC values increased proportionally with dose level of a scyllo-cyclohexanehexyl. […] The extensive brain penetrance of the scyllo-cyclohexanhexyl (see below) may be relevant in this regard.

[3] = Single oral and intravenous dose pharmacokinetics, dose range-finding study in beagle dogs; format: in vivo, beagle dog; conditions: dogs, comparison of PK profiles following oral and i.v. administration
Experimental: PK of single oral doses of the scyllo-cyclohexanhexyl was also investigated in a preliminary fashion in a dose range-finding study in 5 beagle dogs. […] The Cmax and AUC values increased proportionally with dose, consistent with observations in the larger study. Estimates of t½ ranged from 2 to 5 hours. Neither dose nor route of administration had any clear effect on t½, MRT, Cl/F or Vdss.

in vivo [4] = conditions: rat
Experimental: Plasma PK of a scyllo-cyclohexanehexyl compound in rats was assessed after 28 days oral dosing of 15, 50 and 150 mg/kg, administered twice daily. […] Indeed, at this dose level, the Vdss, clearance and elimination rates appeared to be reduced with repeated dosing. […] As for single doses, the scyllo-cyclohexanehexyl was absorbed rapidly, with mean tmax observed between 1.2 and 1.3 hours post-dose. […] Estimates of MRT were consistent.

in vivo [5] = conditions: dog, po, 150 mg/kg
Experimental: Plasma PK of a scyllo-cyclohexanhexyl in dogs was assessed after 14 days oral dosing of 15, 50 and 150 mg/kg, administered twice daily. As on Day 1 of this study Cmax and AUC values increased proportionally with dose level of scyllo-cyclohexanehexyl. However, dose-normalised exposures appeared to decrease with dose. This contrasts with positive trend observed after acute exposure. […] As for single doses, the scyllo-cyclohexanehexyl was absorbed rapidly, with tmax observed between 1.1 and 1.8 hours post-dose. […] Estimates of MRT were consistent. The Vdss and Cl/F values were similar for all dose levels.

[6] = Brain penetrance: plasma and CSF pharmacokinetics after single oral doses in dogs; format: in vivo, dog
From the text: CSF bathes the central nervous system and sits on the inside of the blood brain barrier. Although a centrally-acting drug will still need to penetrate brain tissue to exert an effect, quantification of drug in CSF may provide a gross estimate of brain-penetrance.

[7] = CSF and plasma levels at end of 14 day repeat dose study in dogs; format: in vivo, dog; conditions: 30 mg/kg/day for 14 days
Experimental: CSF was also collected from dogs at the end of the 14 day repeat study upon necropsy (approximately 24 hours after the final dose was administered). Levels of the scyllo-cyclohexanehexyl in CSF increased with dose and followed the profile observed in plasma.

[8] = single oral doses 20, 80, 240 mg/kg

half life (t1/2) (in vivo [1]): 2.1 to 2.7 h | mean tmax (in vivo [1]): 1.0 to 2.2 h | Tmax (in vivo [2]): 1.2 to 2.2 h | t½ (in vivo [2]): 1.7 to 2.2 h | estimated bioavailability [3]: > 90% | mean plasma concentration 12 hours after the last administration (in vivo [4]): ~6000 ng/mL | AUC(0-t) (in vivo [4]; po, 150 mg/kg): 573 µg·h/mL | mean tmax (in vivo [4]; po, 150 mg/kg): 1.2 to 1.3 h | t½ (in vivo [4]; po, 150 mg/kg): 3.1 to 4.4 h | AUC(0-t) (in vivo [5]): 523 µg·h/mL | Tmax (in vivo [5]): 1.1 to 1.8 h | t½ (in vivo [5]): 2.9 to 4.7 h | Mean Cmax and AUC0-Inf in CSF as % of that observed in plasma [6]: 60% | plasma tmax (same animals) [6, 8]: 2.3 to 2.8 h | tmax in CSF [6, 8]: 2.8 to 4.0 h | Mean Cmax in CSF as % of plasma Cmax ([6]; single oral doses 20, 80, 240 mg/kg, same animals): 27-66% | AUC0-Inf in CSF as % of that in plasma ([6]; single oral doses, same animals, listed as scyllo-cyclohexanehexyl): 62% and 65% | levels in both plasma and CSF (12 and 24 hours after the last administration) [7]: ~4000 ng/mL
Substance: scyllo-inositol [AZD-103]
